Experimental data published in patent US20240050407A1, “METHODS FOR DELAY OF EJACULATION IN HUMAN MALES” (priority 2020, published 2024).

Columns and labels:
Assay type in all cases: in vivo
[1] = test system: para-chloroamphetamine (PCA)-induced ejaculation model in anaesthetized Wistar rats; assay: Rat para-chloroamphetamine (PCA)-induced ejaculation model (ejaculation, latency, seminal vesicle pressure); settings: for Seminal vesicle pressure response vs vehicle, FIG. 10, FIG. 11 / Ejaculation latency vs vehicle, FIG. 9: 20 mg/kg or 10 mg/kg IP 1 h before PCA
Description: Experiments were performed to assess the effect of an acute treatment of alkaloids, mesembrine, mesembrenone, mesembrenol and mesembranol, at their maximal tolerable dose (MTD) on ejaculation latency in a para-chloroamphetamine (PCA)-induced ejaculation model in anaesthetized Wistar rats.
Adult male Wistar rats (Charles-River, France, 10-11 weeks old) were housed at least 10 days prior to the beginning of the experiments with free access to regular diet and water and maintained on an inversed 12 hour dark/light cycle (9:00/21:00). All procedures were performed in accordance with the legislation on the use of laboratory animals (NIH publication N°85-23, revised 1996) and Animal Care Regulations in force in France as of 1988 (authorization from competent French Ministry of Agriculture—Agreement No. B78-423-1, July 2017).
Rats received a single administration by intraperitoneal (IP) route of either vehicle, mesembrine, mesembrenone, mesembrenol, or mesembranol 1 hour before the in vivo evaluation of PCA-induced ejaculation as follows:
Part 1: Rats received a single IP injection of either vehicle control (0.5% hydroxypropyl methylcellulose (HPMC) in sterile water, n=10), mesembrine at 20 mg/kg (n=9), 10 mg/kg (n=11), 2 mg/kg (n=12), 200 μg/kg (n=12) and 20 μg/kg (n=10) 1 hour prior to administration of PCA. Treatment groups for Part I are outlined below in Table 2:
Part 2: Rats received a single IP injection of mesembrenone at 20 mg/kg (n=10). Treatment groups for Part 2 are outlined in Table 3.
Part 3: Rats received single IP injection of mesembrenol at 20 mg/kg (n=4) or 10 mg/kg (n=6) or mesembranol at 20 mg/kg (n==6) or 10 mg/kg (n=6). Treatment for Part 3 are outlined in Table 4.
After treatment administration, the rats underwent an evaluation of their ejaculation function induced by PCA administration. Thus, the expulsion of seminal plug(s) and seminal vesicle pressure (SVP) increase was evaluated. At the end of experimental period, the rats were euthanized by an intracardiac injection of pentobarbital (Eutasol®, Centravet, France).
Drug Preparation. Alkaloids were diluted to a 100 mg/mL final concentration (stock solution) and mixed by vortex. Then, aliquots per rat were prepared and stored at −20° C. until use. The day of experiment, 1 aliquot per rat was thawed and diluted to the desired concentration. The volume of administration was either 2 mL/kg for the IP administration or 5 mL/kg for the oral gavage, in line with good practice for administration volume in rat.
Ejaculation was induced by intraperitoneal administration of P-chloroamphetamine (PCA) at 5 mg/kg in anesthetized rats according to previously described methods (Clement el al., Role of peripheral innervation in p-chloroamphetamine-induced ejaculation in anesthetized rats. J Androl 2006; 27:381-389). PCA is an amphetamine derivative that liberates catecholamines and serotonin from monoaminergic nerve terminals. Systemic administration of PCA has been reported to induce ejaculation in both conscious (Humphries et al, 1981; Rènyi, 1985) and anesthetized (Yonezawa et al, 2000) rats.
Seminal vesicle pressure (SW) was measured as a physiological marker for the emission phase of ejaculation (Clement P, Giuliano F. Physiology and Pharmacology of Ejaculation. Basic Clint Pharmacol Toxicol 201.6 119 Suppl 3:18-25),
Rats were anesthetized and their temperature maintained at 37° C. using a homoeothermic blanket. The carotid artery was catheterized with polyethylene tubings filled with heparinized saline (50 UI/ml) to record continuously blood pressure (BP) via a pressure transducer (Elcomatic 750, Glasgow, UK). Pressure was recorded using specific data acquisition software (Elphy, CNRS, France).
For measuring SVP, a suprapubic midline incision was performed to expose seminal vesicles and a polyethylene catheter (0.50 mm), filled with mineral oil, was inserted into one seminal vesicle through the apex and connected to a pressure transducer (Elcomatic 750, Glasgow, UK). […]

[2] = test system: healthy human male subjects; assay: Ejaculation latency in healthy human males after pure mesembrine
Description: Experiments were performed to determine the effects of pure mesembrine on ejaculation in male subjects. 0.5 mg, 1 mg, 2.5 mg, and 5 mg doses of pure mesembrine (Cayman Chemical Company, MI, USA) were administered by oral, nasal or sublingual routes to healthy human male subjects. The formulation for oral (swallowed) and sublingual (held under tongue for 5 minutes) was 2 mg mesembrine/mL 40% aqueous for oral and sublingual. The nasal spray formulation was 0.4 mg mesembrine/mL 1% w/w NaCl saline delivered via metered nasal spray device. Mesembrine was administered 20 minutes prior to sexual activity. The sexual activity was either solo masturbation (“self”) or partnered intercourse with a female partner (“partnered”). Latency time of ejaculation was measured and calculated by time from start of sexual activity to ejaculation. […] In all test cases, ejaculation coincided with orgasm. In all cases where ejaculation was not achieved, orgasm was also not achieved.

Wistar rats = assay: Maximal tolerable dose (MTD) in rats; settings: rat, single IP administration
[3] = test system: healthy human male subjects; assay: Ejaculation latency in healthy human males after pure mesembrine; settings: Subject D, 70 kg; 0.05 mg; Self; nasal spray (in aqueous 1% w/w NaCl)
[4] = mesembrine 20 μg/kg single IP 1 h before PCA, 30-min observation
[5] = mesembrine 200 μg/kg single IP 1 h before PCA, 30-min observation
[6] = mesembrine 2 mg/kg single IP 1 h before PCA, 30-min observation
[7] = mesembrine 10 mg/kg single IP 1 h before PCA, 30-min observation
[8] = mesembrine 20 mg/kg single IP 1 h before PCA, 30-min observation

SMILES: COc1ccc([C@@]23CCC(=O)C[C@@H]2N(C)CC3)cc1OC [Mesembrine, mesembrine]
- ejaculation during the 30-minute observation period (in words) ([1]; 20 mg/kg IP 1 h before PCA): did not ejaculate
- rats that did not ejaculate during the 30-min observation period following PCA injection ([1]; 20 mg/kg IP 1 h before PCA): 100%
- Ejaculation latency (ejaculatory response vs vehicle control), FIG. 3 ([1]; all dosage conditions tested (20 μg/kg to 20 mg/kg IP)): delayed ejaculatory response
- Seminal vesicle pressure response assessed as amplitude and AUC vs vehicle control, FIG. 4, FIG. 5 ([1]; all mesembrine treatment cases (20 μg/kg to 20 mg/kg IP)): decreased
- N of ejaculating rats [1, 4]: 9/9
- N of rats not ejaculating [1, 4]: 0/9
- Percentage of ejaculating rats [1, 4]: 100%
- N of ejaculating rats [1, 5]: 10/11
- N of rats not ejaculating [1, 5]: 1/11
- Percentage of ejaculating rats [1, 5]: 91%
- N of ejaculating rats [1, 6]: 4/12
- N of rats not ejaculating [1, 6]: 8/12
- Percentage of ejaculating rats [1, 6]: 33%
- N of ejaculating rats [1, 7]: 7/12
- N of rats not ejaculating [1, 7]: 5/12
- Percentage of ejaculating rats [1, 7]: 58%
- N of ejaculating rats [1, 8]: 0/10
- N of rats not ejaculating [1, 8]: 10/10
- Percentage of ejaculating rats [1, 8]: 0%
- Qualitative experience ([2]; Subject A, 77 kg, 0.5 mg, Self, sublingual (5 min under tongue)): Orgasm with drug was more intense than average
- Qualitative experience ([2]; Subject A, 77 kg, 1 mg, Self, sublingual (5 min under tongue)): Onset after dosing with drug felt at around 9 min;
- Qualitative experience ([2]; Subject B, 75 kg, 0.5 mg, Self, oral): Significant lengthening of latency time noticed
- Qualitative experience ([2]; Subject C, 100 kg, 0.5 mg, Self, oral): Did not complete ejaculation as an effect of drug.
- Qualitative experience ([2]; Subject D, 70 kg, 1 mg, Self, oral): Satisfactory dosing to maintain control and easily
- Qualitative experience ([2]; Subject D, 70 kg, 2.5 mg, Partnered, oral): Increased satisfaction from female partner noted.
- Qualitative experience ([2]; Subject D, 70 kg, 5 mg, Partnered, oral): Did not complete ejaculation as an effect of drug.
- ejaculation latency (in words) ([2]; all doses tested, oral, nasal or sublingual, 20 minutes prior to sexual activity): extended the ejaculation latency at all doses tested
- maximal tolerable dose (MTD) (Wistar rats): 20 mg/kg (MTD)
- Qualitative experience [3]: Effects noticed more rapidly than oral dosing.

SMILES: COc1ccc([C@@]23CC[C@@H](O)C[C@@H]2N(C)CC3)cc1OC [mesembranol]
- Seminal vesicle pressure response vs vehicle, FIG. 10, FIG. 11 [1]: decreased
- Ejaculation latency vs vehicle, FIG. 9 ([1]; 30-min observation): delayed ejaculation

SMILES: COc1ccc(C23C=CC(O)CC2N(C)CC3)cc1OC (centres unmarked) [mesembrenol]
- Seminal vesicle pressure response vs vehicle, FIG. 10, FIG. 11 [1]: decreased
- Ejaculation latency vs vehicle, FIG. 9 ([1]; 30-min observation): delayed ejaculation

SMILES: COc1ccc([C@@]23C=CC(=O)C[C@@H]2N(C)CC3)cc1OC [mesembrenone]
- Seminal vesicle pressure response vs vehicle, FIG. 7, FIG. 8 ([1]; 20 mg/kg IP 1 h before PCA): decreased
- Ejaculation latency vs vehicle, FIG. 6 ([1]; 20 mg/kg IP 1 h before PCA, 30-min observation): delayed ejaculation
